Reference: patent publication US20230256092A1, “COMBINED USE OF ANTI-CCR8 ANTIBODY AND CHEMOTHERAPEUTIC AGENT” (Shionogi & Co., Ltd., priority 2020, published 2023)

Tests used:
Type in all cases: in vivo, mouse
[1] = tested on: lung cancer-derived ASB-XIV cells; assay: Example 8: hCCR8-KI (KI/KI) mice inoculated with ASB-XIV cells, paclitaxel combination
Description: To an anti-human CCR8 antibody single administration group, an anti-human CCR8 antibody (humanized 10A11 antibody (light chain variable region: IGKV4-1 N53Q+G29R (SEQ ID NO: 59)/heavy chain variable region: IGHV3-15 T94R (SEQ ID NO: 41))) at 0.5 mg/10 mL/kg body weight and saline at 10 mL/kg body weight were intravenously administered 5 days after tumor inoculation (N=10). To a paclitaxel single administration group, saline at 10 mL/kg body weight and paclitaxel (trade name: TAXOL, Bristol-Myers Squibb Company) at 8 mg/10 mL/kg body weight were intravenously administered 5 days after tumor inoculation (N=10). To an anti-human CCR8 antibody and paclitaxel combined administration group, an anti-human CCR8 antibody at 0.5 mg/10 mL/kg body weight and paclitaxel at 8 mg/10 mL/kg body weight were intravenously administered 5 days after tumor inoculation (N=10). To a control group, saline was intravenously administered at 20 mL/kg 5 days after tumor inoculation (N=10). Tumor volumes were measured every 2 to 5 days from 5 days after tumor inoculation. The tumor volume (mm^3) was measured in long diameter (mm)×short diameter (mm)×short diameter (mm)/2, and a significant difference test based on a Student's T: one-sided test method (significance level: P<0.05) was conducted.

[2] = tested on: breast cancer-derived 4T1 cells; assay: Example 1: Balb/c mice inoculated with 4T1 cells, carboplatin combination; settings: antibody 50 μg iv days 5, 8; carboplatin 114 mg/kg iv day 5; single groups 8, 12, 15, 18, 22 days after inoculation, combined from 8 days; Mann-Whitney U
Description: (§1) The back of each Balb/c mouse (6 weeks old, female) was intracutaneously inoculated with 2×10^5 breast cancer-derived 4T1 cells (50 μL).
(§2) To an anti-mouse CCR8 antibody single administration group, 50 μg (200 μL) of an anti-mouse CCR8 antibody (clone SA214G2, BioLegend, Inc.) was intravenously administered 5 and 8 days after tumor inoculation, and saline was intravenously administered at a volume of 11.4 mL/kg body weight 5 days after tumor inoculation (N=10). To a carboplatin single administration group, 50 μg (200 μL) of an isotype control antibody (clone LTF-2, Bio X Cell, Inc.) was intravenously administered 5 and 8 days after tumor inoculation, and carboplatin (trade name: PARAPLATIN, Bristol-Myers Squibb Company) at 114 mg/kg body weight was intravenously administered at a volume of 11.4 mL/kg body weight 5 days after tumor inoculation (N=10). […] Tumor volumes were measured every 3 to 4 days from 5 days after tumor inoculation. The tumor volume (mm^3) was measured in long diameter (mm)×short diameter (mm)×short diameter (mm)/2, and a significant difference test based on a Mann-Whitney U method (significance level: P<0.05) was conducted.

[3] = tested on: bladder cancer-derived MB49 cells; assay: Example 4: C57BL/6 mice inoculated with MB49 cells, carboplatin or cisplatin combination; settings: antibody 50 μg iv days 4, 7; carboplatin 40 mg/kg or cisplatin 3 mg/kg iv day 4; single groups 7, 10, 14, 17, 18 days; carboplatin combination from 10 days, cisplatin combination from 14 days; Mann-Whitney U
Description: The back of each C57BL/6 mouse (6 weeks old, male) was intracutaneously inoculated with 2×10^5 bladder cancer-derived MB49 cells (50 μL).
To an anti-mouse CCR8 antibody single administration group, 50 μg (200 μL) of an anti-mouse CCR8 antibody (clone SA214G2, BioLegend, Inc.) was intravenously administered 4 and 7 days after tumor inoculation, and saline was intravenously administered at a volume of 10 mL/kg body weight 4 days after tumor inoculation (N=10).
To a carboplatin single administration group, 50 μg (200 uL) of an isotype control antibody (clone LTF-2, Bio X Cell, Inc.) was intravenously administered 4 and 7 days after tumor inoculation, and carboplatin (trade name: PARAPLATIN, Bristol-Myers Squibb Company) at 40 mg/kg body weight was intravenously administered at a volume of 10 mL/kg body weight 4 days after tumor inoculation (N=10). […]
Tumor volumes were measured every 1 to 4 days from 4 days after tumor inoculation. The tumor volume (mm^3) was measured in long diameter (mm)×short diameter (mm)×short diameter (mm)/2, and a significant difference test based on a Mann-Whitney U method (significance level: P<0.05) was conducted. […]

[4] = tested on: breast cancer-derived 4T1 cells; assay: Example 2: Balb/c mice inoculated with 4T1 cells, gemcitabine combination; settings: antibody 50 μg iv days 5, 8; gemcitabine 50 mg/kg iv day 5; gemcitabine single 8, 12, 15, 18, 22 days, combined from 8 days; Mann-Whitney U
Description: as §1
as §2, with “10” for “11.4”, “gemcitabine” for “carboplatin”, “GEMZAR, Eli Lilly Inc.)” for “PARAPLATIN, Bristol-Myers Squibb Company)”, “50” for “114”

[5] = tested on: lung cancer-derived ASB-XIV cells; assay: Example 7: hCCR8-KI (KI/KI) mice inoculated with ASB-XIV cells, cisplatin combination; settings: antibody 1 mg/kg iv and cisplatin 3 mg/kg iv day 5; 14, 17 and 19 days after tumor inoculation; Mann-Whitney U
Description: To an anti-human CCR8 antibody single administration group, an anti-human CCR8 antibody (humanized 10A11 antibody (light chain variable region: IGKV4-1 N53Q+G29R (SEQ ID NO: 59)/heavy chain variable region: IGHV3-15 T94R (SEQ ID NO: 41))) at 1 mg/10 mL/kg body weight and saline at 10 mL/kg body weight were intravenously administered 5 days after tumor inoculation (N=10). To a cisplatin single administration group, a control solution at 10 mL/kg body weight and cisplatin (trade name: RANDA, Nippon Kayaku Co., Ltd.) at 3 mg/10 mL/kg body weight were intravenously administered 5 days after tumor inoculation (N=10). To an anti-human CCR8 antibody and cisplatin combined administration group, an anti-human CCR8 antibody at 1 mg/10 mL/kg body weight and cisplatin at 3 mg/10 mL/kg body weight were intravenously administered 5 days after tumor inoculation (N=10). To a control group, a control solution at 10 mL/kg body weight and saline at 10 mL/kg body weight were intravenously administered 5 days after tumor inoculation (N=10). Tumor volumes were measured every 2 to 5 days from 5 days after tumor inoculation. The tumor volume (mm^3) was measured in long diameter (mm)×short diameter (mm)×short diameter (mm)/2, and a significant difference test based on a Mann-Whitney U method (significance level: P<0.05) was conducted.

[6] = tested on: breast cancer-derived 4T1 cells; assay: Example 3: hCCR8-KI (KI/KI) mice inoculated with 4T1 cells, cisplatin combination; settings: antibody 400 μg iv days 5, 8; cisplatin 8 mg/kg iv day 5; cisplatin single 8, 11, 13, 15, 18, 21, 25, 29 days, combined from 8 days; Mann-Whitney U
Description: To an anti-human CCR8 antibody single administration group, 400 μg (200 μL) of an anti-human CCR8 antibody (humanized 10A11 antibody (light chain variable region: IGKV4-1 N53Q+G29R (SEQ ID NO: 59)/heavy chain variable region: IGHV3-15 T94R (SEQ ID NO: 41))) was intravenously administered 5 and 8 days after tumor inoculation, and saline was intravenously administered at a volume of 16 mL/kg body weight 5 days after tumor inoculation (N=10). To a cisplatin single administration group, 200 μL of a control solution (obtained by diluting a buffer solution used for the antibody with saline in line with an antibody dilution ratio) was intravenously administered 5 and 8 days after tumor inoculation, and cisplatin (trade name: RANDA, Nippon Kayaku Co., Ltd.) at 8 mg/kg body weight was intravenously administered at a volume of 16 mL/kg body weight 5 days after tumor inoculation (N=10). […] Tumor volumes were measured every 2 to 4 days from 5 days after tumor inoculation. The tumor volume (mm^3) was measured in long diameter (mm)×short diameter (mm)×short diameter (mm)/2, and a significant difference test based on a Mann-Whitney U method (significance level: P<0.05) was conducted.

CC(=O)O[C@H]1C(=O)[C@@]2(C)[C@H]([C@H](OC(=O)c3ccccc3)[C@]3(O)C[C@H](OC(=O)[C@H](O)[C@@H](NC(=O)c4ccccc4)c4ccccc4)C(C)=C1C3(C)C)[C@]1(OC(C)=O)CO[C@@H]1C[C@@H]2O [paclitaxel]
tumor volume as compared to the control group ([1]; antibody 0.5 mg/kg iv and paclitaxel 8 mg/kg iv day 5, antibody single 10, 12, 14, 18 days, paclitaxel single 10 and 12 days, combined from 10 days, Student's T one-sided): significant decrease
tumor volume as compared to the control group, later time points ([1]; paclitaxel 8 mg/kg iv day 5, 14 and 17 days after tumor inoculation): the significant difference disappeared

N.N.O=C([O-])C1(C(=O)[O-])CCC1.[Pt+2] [carboplatin]
tumor volume as compared to the control group [2]: no significant difference
tumor volume as compared to the control group [3]: no significant difference

Nc1ccn([C@@H]2O[C@H](CO)[C@@H](O)C2(F)F)c(=O)n1 [gemcitabine]
tumor volume as compared to the control group [4]: significant decrease

N.N.[Cl][Pt][Cl] [cisplatin, reference compound]
tumor volume as compared to the control group [5]: no significant decrease
tumor volume as compared to the control group [6]: significant decrease
tumor volume as compared to the control group [3]: no significant difference
